Laboratory results: ChEMBL document CHEMBL5316300, “Discovery of TP0597850: A Selective, Chemically Stable, and Slow Tight-Binding Matrix Metalloproteinase-2 Inhibitor with a Phenylbenzamide-Pentapeptide Hybrid Scaffold” (J Med Chem, 2023)

Tests used:
Homo sapiens = organism: Homo sapiens; test: Selectivity ratio of IC50 for recombinant human MMP12 to IC50 for recombinant human MMP2
[1] = biological target: Macrophage metalloelastase (Homo sapiens, UniProt P39900); test: Inhibition of human recombinant MMP12 using MOCAc-Lys-Pro-Leu-Gly-Leu-A2pr(Dnp)-Ala-Arg-N2 as substrate preincubated for 10 to 15 mins followed by substrate addition and measured after 60 to 120 mins by fluorescence based assay
Macrophage metalloelastase, sequence (P39900 whole entry): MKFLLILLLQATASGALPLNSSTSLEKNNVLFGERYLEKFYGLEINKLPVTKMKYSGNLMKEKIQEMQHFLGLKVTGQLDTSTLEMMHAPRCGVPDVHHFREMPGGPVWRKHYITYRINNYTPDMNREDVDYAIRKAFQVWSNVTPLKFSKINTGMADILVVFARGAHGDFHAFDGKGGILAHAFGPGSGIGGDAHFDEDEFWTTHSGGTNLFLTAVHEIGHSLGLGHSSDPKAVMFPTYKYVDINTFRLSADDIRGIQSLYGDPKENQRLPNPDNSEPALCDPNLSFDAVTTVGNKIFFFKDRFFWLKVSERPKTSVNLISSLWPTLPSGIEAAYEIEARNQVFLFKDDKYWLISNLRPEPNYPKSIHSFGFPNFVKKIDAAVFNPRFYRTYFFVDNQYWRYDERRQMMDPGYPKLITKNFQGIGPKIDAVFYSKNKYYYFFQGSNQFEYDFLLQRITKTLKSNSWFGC

[2] = biological target: 72 kDa type IV collagenase (Homo sapiens, UniProt P08253); test: Inhibition of recombinant human MMP2 using MOCAc-Lys-Pro-Leu-Gly-Leu-A2pr(Dnp)-Ala-Arg-N2 as substrate preincubated for 10 to 15 mins followed by substrate addition and measured after 60 to 120 mins by fluorescence based assay
72 kDa type IV collagenase, sequence (P08253 whole entry): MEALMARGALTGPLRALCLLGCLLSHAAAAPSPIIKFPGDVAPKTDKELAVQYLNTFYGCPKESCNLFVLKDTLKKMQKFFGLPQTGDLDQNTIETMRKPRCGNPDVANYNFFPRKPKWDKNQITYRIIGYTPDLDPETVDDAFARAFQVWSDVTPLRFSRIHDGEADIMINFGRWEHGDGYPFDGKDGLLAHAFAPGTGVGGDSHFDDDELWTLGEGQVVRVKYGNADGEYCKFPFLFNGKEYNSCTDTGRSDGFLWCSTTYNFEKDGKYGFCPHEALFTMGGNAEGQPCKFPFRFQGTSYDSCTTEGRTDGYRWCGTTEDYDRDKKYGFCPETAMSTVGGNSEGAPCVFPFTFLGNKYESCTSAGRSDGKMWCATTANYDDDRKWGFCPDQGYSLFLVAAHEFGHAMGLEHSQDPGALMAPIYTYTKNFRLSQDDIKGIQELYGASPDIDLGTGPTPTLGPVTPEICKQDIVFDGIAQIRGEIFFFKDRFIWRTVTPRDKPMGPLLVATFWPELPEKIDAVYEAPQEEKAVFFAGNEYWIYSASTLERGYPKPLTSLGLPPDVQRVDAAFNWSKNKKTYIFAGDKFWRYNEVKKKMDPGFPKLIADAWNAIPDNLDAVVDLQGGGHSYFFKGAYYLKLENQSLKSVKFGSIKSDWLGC

Collagenase 3 = Collagenase 3 (Homo sapiens, UniProt P45452); test: Inhibition of human recombinant MMP13 using MOCAc-Lys-Pro-Leu-Gly-Leu-A2pr(Dnp)-Ala-Arg-N2 as substrate preincubated for 10 to 15 mins followed by substrate addition and measured after 60 to 120 mins by fluorescence based assay
[3] = biological target: MMP-2/MMP-13 (Homo sapiens) (UniProt P08253+P45452); test: Selectivity ratio of IC50 for recombinant human MMP13 to IC50 for recombinant human MMP2; assay type: protein assay
MMP-2/MMP-13 (Homo sapiens), sequence (P08253 whole entry, looked up, other chains not shown): as the sequence (P08253 whole entry) above

Row | Compound | Ratio IC50 (Homo sapiens) | IC50 ([1]; read-out: IC50) | IC50 [2] | IC50 (Collagenase 3) | Ratio IC50 [3] | IC50 [1] | Ki [2]
1 | CC[C@H](C)[C@@H](C(=O)NCCCCC(N)=O)N(C)C(=O)[C@H](CC(C)C)NC(=O)[C@@H]1CNCCN1C(=O)CC[C@@H](NS(=O)(=O)c1ccc(NC(=O)c2ccc(Cl)cc2)cc1)C(=O)O | 120 | 78 nM | 0.67 nM | 370 nM | 550 | – | –
2 | CC[C@H](C)[C@@H](C(=O)N1CCC[C@H]1CC(N)=O)N(C)C(=O)[C@H](CC(C)C)NC(=O)[C@H](CCN)NC(=O)CC[C@@H](NS(=O)(=O)c1ccc(-c2ccccc2)cc1)C(=O)O | 39 | 240 nM | 6.2 nM | 230 nM | 37 | – | –
3 | CC[C@H](C)[C@@H](C(=O)NCCCC(N)=O)N(C)C(=O)[C@H](CC(C)C)NC(=O)[C@H](CCN)NC(=O)CC[C@@H](NS(=O)(=O)c1ccc(NC(=O)c2ccc(Cl)cc2)cc1)C(=O)O | 1400 | 230 nM | 0.16 nM | 280 nM | 1800 | – | –
4 | CC(C)C[C@H](NC(=O)[C@@H]1CCCN1C(=O)CC[C@@H](NS(=O)(=O)c1ccc(NC(=O)c2ccc(C(N)=O)cc2)cc1)C(=O)O)C(=O)N(C)[C@@H](CCC(=O)O)C(=O)NCCCCC(N)=O | 170 | 52 nM | 0.31 nM | 50 nM | 160 | – | –
5 | CC[C@H](C)[C@@H](C(=O)N1CCC[C@H]1CC(N)=O)N(C)C(=O)[C@H](CC(C)C)NC(=O)[C@H](CCN)NC(=O)CC[C@@H](NS(=O)(=O)c1ccc(NC(=O)c2ccccc2)cc1)C(=O)O | 1300 | 990 nM | 0.74 nM | 630 nM | 850 | – | –
6 | CC[C@H](C)[C@@H](C(=O)NCCCCCC(N)=O)N(C)C(=O)[C@H](CC(C)C)NC(=O)[C@H](CCN)NC(=O)CC[C@@H](NS(=O)(=O)c1ccc(NC(=O)c2ccc(Cl)cc2)cc1)C(=O)O | 2600 | 260 nM | 0.1 nM | 280 nM | 2800 | – | –
7 | CC[C@H](C)[C@@H](C(=O)NCCCCC(N)=O)N(C)C(=O)[C@H](CC(C)C)NC(=O)[C@@H]1C[C@H](N)CN1C(=O)CC[C@@H](NS(=O)(=O)c1ccc(NC(=O)c2ccc(C(N)=O)cc2)cc1)C(=O)O | 550 | – | – | – | 860 | – | –
8 | CC[C@H](C)[C@@H](C(=O)N1CCC[C@H]1CC(N)=O)N(C)C(=O)[C@H](CC(C)C)NC(=O)[C@H](CCN)NC(=O)CC[C@@H](NS(=O)(=O)c1ccc(Oc2ccccc2)cc1)C(=O)O | – | – | > 10 nM | – | – | Not Active | –
9 | CC[C@H](C)[C@@H](C(=O)N1CCC[C@H]1CC(N)=O)N(C)C(=O)[C@H](CC(C)C)NC(=O)[C@H](CCN)NC(=O)CC[C@@H](NS(=O)(=O)c1ccc(NC(=O)c2ccc(Cl)cc2)cc1)C(=O)O | 470 | 200 nM | 0.43 nM | 160 nM | 370 | – | –
10 | CC[C@H](C)[C@@H](C(=O)NCCCCC(N)=O)N(C)C(=O)[C@H](CC(C)C)NC(=O)[C@H](CCN)NC(=O)CC[C@@H](NS(=O)(=O)c1ccc(NC(=O)c2ccc(Cl)cc2)cc1)C(=O)O | 1600 | 180 nM | 0.11 nM | 310 nM | 2800 | – | –
11 | CC[C@H](C)[C@@H](C(=O)N1CCC[C@H]1CC(N)=O)N(C)C(=O)[C@H](CC(C)C)NC(=O)[C@H](CCN)NC(=O)CC[C@@H](NS(=O)(=O)c1ccc(NC(=O)c2ccc(C(N)=O)cc2)cc1)C(=O)O | 950 | 400 nM | 0.42 nM | 280 nM | 670 | – | –
12 | CC[C@H](C)[C@@H](C(=O)NCCC(N)=O)N(C)C(=O)[C@H](CC(C)C)NC(=O)[C@H](CCN)NC(=O)CC[C@@H](NS(=O)(=O)c1ccc(NC(=O)c2ccc(Cl)cc2)cc1)C(=O)O | 1200 | 240 nM | 0.2 nM | 280 nM | 1400 | – | –
13 | H-ISYGNDALMP-OH | – | – | – | – | – | – | 21 nM
